Laboratory results from patent US12351597B2, “Substituted biphenyl or phenylheteroaryl-mannosides as antagonists of FimH” (GLAXOSMITHKLINE INTELLECTUAL PROPERTY DEVELOPMENT LIMITED, priority 2019, dated 2025).

Key:
FimH = molecular target: T1, FimH (Escherichia coli, UniProt Q1R2J4); assay: Hemagglutination inhibition assay (HAI); assay type: cell-based; conditions: HAI titer / EC>90: concentration reducing bacterial agglutination of guinea pig red blood cells by >90%; UTI89 bacteria
T1 construct: endogenous in cells; host or cells: E. coli UTI89 whole bacteria (piliated), with guinea pig red blood cells
Description: “HAI titer or EC>90” is that concentration of the FimH inhibitor/antagonist which reduces the bacterial agglutination of guinea pig red blood cells by greater than 90%.
The activities of the Examples 1-40 compounds above as FimH antagonists/inhibitors were obtained by the following assay(s), and values are provided in Table 1. The values not provided mean that the activities have not yet been tested.
Hemagglutination Inhibition Assay (HAI)
The hemagglutination inhibition (HAI) assay was performed with UTI89 bacteria and guinea pig red blood cells, as previously described (S. J. Hultgren, W. R. Schwan, A. J. Schaeffer, J. L. Duncan Infect. Immun. 1986, 54, 613-620 and Jarvis, C.; Han, Z.; Kalas, V.; Klein, R.; Pinkner, J. S.; Ford, B.; Binkley, J.; Cusumano, C. K.; Cusumano, Z.; Mydock-McGrane, L.; Hultgren, S. J.; Janetka, J. W., ChemMedChem 2016, 11, 367-373). Values not listed were not tested.

[1] = Rat pharmacokinetics (IV infusion 1 mg/kg, then PO 5 mg/kg; blood and urine); assay type: in vivo, Male Wistar Han rats; conditions: for PK DNAUC h * uM (DNAUC oral, dose normalized): PO 5 mg/kg, blood, AUC divided by dose in mg/kg; for bioavailability: male, Wistar Han, whole blood, oral bioavailability from dose-normalized AUC, PO 5 mg/kg vs IV infusion 1 mg/kg; for Ue % (Ue % po): percentage of oral dose eliminated unchanged in urine, or estimate from IV urinary % times oral bioavailability
Description: General Assays for Obtaining AUC Oral h*μm, % F, and Ue % PO Values
Male Wistar Han rats were purchased from Vital River Laboratory Animal Technology Co. Ltd (Beijing, China). The animals were approx. 6-8 weeks old with body weights of 200-300 g on the dosing date. The animals were housed in a 12-hour light/12-hour dark cycle environment and had free access to food and water. All animals were fed prior to dosing. Studies were approved by the Pharmaron Institutional Animal Care and Use Committee (IACUC).
Test article was administered as an intravenous infusion for 1 hour (1 mg/kg) at 5 mL/kg/h. After 48 h, animals received a single oral dose (5 mg/kg, free form) at a dose volume of 10 mL/kg, respectively. Blood samples were collected at various time points after IV infusion and PO administrations. Urine samples were collected at various time points after IV infusion and PO administrations (for some compounds).
Test article was dissolved in DMSO with vortexing and sonification to obtain a stock solution. An aliquot of the stock solution was mixed with 10% HP-β-CD in saline with vortexing to obtain a solution with concentration at 0.2 mg/mL of test article.
Test article was added into 1% Methyl Cellulose with vortexing and sonication to obtain a homogeneous suspension with concentration at 0.5 mg/mL of test article.
For IV infusion (1 mg/kg) administration, blood samples were collected from each animal at 0, 0.25, 0.5, 0.75, 1, 1.08, 1.25, 1.5, 1.75, 2, 3, 5, 8, 12, 24 hour post-dose.
For PO (5 mg/kg) administration, blood samples were collected from each animal at 0, 0.25, 0.5, 1, 1.5, 2, 3, 4, 6, 8, 12, 24 hour post-dose.
Blood samples (50 μL) were collected from each animal via jugular vein. These blood samples were placed into tubes containing K2EDTA. Whole blood was mixed with same volume of water and inverted several times. The blood samples were stored at −75±15° C. until analysis.
For IV infusion (1 mg/kg) administration, urine samples were collected from each animal at 0-4, 4-8, 8-12, 12-24 hour post-dose.
For PO (5 mg/kg) administration, urine samples were collected (for some compounds) from each animal at 0-4, 4-8, 8-12, 12-24 hour post-dose.
55 μL of standards, 55 μL of QC samples or 55 μL of unknown samples (50 μL of blood or urine with 5 μL 50% acetonitrile) were mixed to 200 μL of acetonitrile containing IS (dexamethasone) to precipitate proteins. Then the samples were vortexed for 30 sec. After centrifugation at 4° C., 4700 rpm for 30 min, and 5 μL of the supernatant was injected into the LC-MS/MS system for quantitative analysis.
Test article blood and urine concentrations for each animal following IV infusion at 1 mg/kg and PO at 5 mg/kg were used to calculate pharmacokinetic parameters by employing a non-compartmental analysis (Phoenix™ WinNonlin® 7.0). The linear trapezoidal algorithm was used for AUC calculation. • AUC oral h*uM: Area under the curve (AUC) of drug concentration in blood vs. time (units: h*μM) following oral administration • DNAUC Dose normalized area under the curve is calculate by divided the area under the curve divided by the dose in the mg/kg • % F: Oral bioavailability (%) derived from the ratio of dose-normalized AUC following PO and IV administration • Ue % PO: Percentage of oral dose eliminated unchanged in urine or an estimate of that parameter generated from using the percentage of the iv dose eliminated in the urine times the oral bioavailability Production Methods: […]

SMILES | HAI nM (FimH) | also measured
Cc1cc(-c2cnc(C(F)(F)F)c(F)c2)ccc1O[C@H]1O[C@H](CO)[C@@H](O)[C@H](O)[C@@H]1O [Example 21] | “+++” (50-200) | –
OC[C@H]1O[C@H](Oc2ccc(-c3cc(C(F)(F)F)c(F)cn3)cc2C(F)(F)F)[C@@H](O)[C@@H](O)[C@@H]1O [Example 20] | “+++” (50-200) | –
Cc1cc(-c2ccnc(C(F)(F)F)c2)ccc1O[C@H]1O[C@H](CO)[C@@H](O)[C@H](O)[C@@H]1O [Example 24] | “+++” (50-200) | –
COc1ccc(-c2ccc(O[C@H]3O[C@H](CO)[C@@H](O)[C@H](O)[C@@H]3O)c(C)c2)cn1 [Example 8] | “+++” (50-200) | –
Cc1cc(-c2cnc(C3CC3)cn2)ccc1O[C@H]1O[C@H](CO)[C@@H](O)[C@H](O)[C@@H]1O [Example 12] | “++++” (<50) | PK DNAUC h * uM (DNAUC oral, dose normalized) [1]: “++” (0.1 ≤ × ≤ 0.2h · μM); bioavailability [1]: > 30%; Ue % (Ue % po) [1]: “++” (0.5 ≤ × ≤ 5%)
Cc1cc(-c2ccnc(N(C)C)c2)ccc1O[C@H]1O[C@H](CO)[C@@H](O)[C@H](O)[C@@H]1O [Example 10] | “++++” (<50) | –
Cc1cc(-c2ccc(C(F)(F)F)cn2)ccc1O[C@H]1O[C@H](CO)[C@@H](O)[C@H](O)[C@@H]1O [Example 27] | “+++” (50-200) | –
Cc1cc(-c2cncc(C(F)(F)F)n2)ccc1O[C@H]1O[C@H](CO)[C@@H](O)[C@H](O)[C@@H]1O [Example 34] | “+++” (50-200) | –
Cc1cc(-c2cnccn2)ccc1O[C@H]1O[C@H](CO)[C@@H](O)[C@H](O)[C@@H]1O [Example 23] | “+++” (50-200) | –
Cc1cc(-c2cc(F)cc(C#N)c2)ccc1O[C@H]1O[C@H](CO)[C@@H](O)[C@H](O)[C@@H]1O [Example 4, 5-Fluoro-3′-methyl-4′-(((2R,3S,4S,5S,6R)-3,4,5-trihydroxy-6-(hydroxymethyl)tetrahydro-2H-pyran-2-yl)oxy)-[1,1′-biphenyl]-3-carbonitrile] | “+++” (50-200) | PK DNAUC h * uM (DNAUC oral, dose normalized) [1]: “+++” (>0.2 h · μM); bioavailability [1]: > 30%
OC[C@H]1O[C@H](Oc2ccc(-c3cc(C(F)(F)F)ccn3)cc2C(F)(F)F)[C@@H](O)[C@@H](O)[C@@H]1O [Example 18] | “+++” (50-200) | –
Cc1cc(-c2cnc(C(F)(F)F)cn2)ccc1O[C@H]1O[C@H](CO)[C@@H](O)[C@H](O)[C@@H]1O [Example 1, (2R,3S,4S,5S,6R)-2-(Hydroxymethyl)-6-(2-methyl-4-(5-(trifluoromethyl)pyrazin-2-yl)phenoxy)tetrahydro-2H-pyran-3,4,5-triol] | “++++” (<50) | PK DNAUC h * uM (DNAUC oral, dose normalized) [1]: “+++” (>0.2 h · μM); bioavailability [1]: > 30%; Ue % (Ue % po) [1]: “+++” (>5%)
OC[C@H]1O[C@H](Oc2ccc(-c3nccc(C(F)(F)F)n3)cc2C(F)(F)F)[C@@H](O)[C@@H](O)[C@@H]1O [Example 13] | “+++” (50-200) | –
Cc1cc(-c2ccc(N3CCCC3)nc2)ccc1O[C@H]1O[C@H](CO)[C@@H](O)[C@H](O)[C@@H]1O [Example 9] | “++++” (<50) | –
Cc1cc(-c2cncc(C#N)c2)ccc1O[C@H]1O[C@H](CO)[C@@H](O)[C@H](O)[C@@H]1O [Example 37] | “++++” (<50) | PK DNAUC h * uM (DNAUC oral, dose normalized) [1]: “+” (<01 h · μM)
Cc1cc(-c2cnc(N3CCCC3)cn2)ccc1O[C@H]1O[C@H](CO)[C@@H](O)[C@H](O)[C@@H]1O [Example 7] | “++++” (<50) | PK DNAUC h * uM (DNAUC oral, dose normalized) [1]: “+” (<01 h · μM)

SMILES | HAI nM (FimH) | also measured
OC[C@H]1O[C@H](Oc2c(F)cc(-c3cnc(C(F)(F)F)cn3)cc2C(F)(F)F)[C@@H](O)[C@@H](O)[C@@H]1O [Example 2, (2R,3S,4S,5S,6R)-2-(2-Fluoro-6-(trifluoromethyl)-4-(5-(trifluoromethyl)pyrazin-2-yl)phenoxy)-6-(hydroxymethyl)tetrahydro-2H-pyran-3,4,5-triol] | “++++” (<50) | –
Cc1cc(-c2cccc(C(F)(F)F)n2)ccc1O[C@H]1O[C@H](CO)[C@@H](O)[C@H](O)[C@@H]1O [Example 40] | “+++” (50-200) | –
OC[C@H]1O[C@H](Oc2ccc(-c3ncc(C(F)(F)F)cn3)cc2C(F)(F)F)[C@@H](O)[C@@H](O)[C@@H]1O [Example 22] | “+++” (50-200) | –
OC[C@H]1O[C@H](Oc2ccc(-c3ccc(C(F)(F)F)cn3)cc2C(F)(F)F)[C@@H](O)[C@@H](O)[C@@H]1O [Example 32] | “+++” (50-200) | –
OC[C@H]1O[C@H](Oc2c(F)cc(-c3ccc(C(F)(F)F)cn3)cc2C(F)(F)F)[C@@H](O)[C@@H](O)[C@@H]1O [Example 28] | “++++” (<50) | PK DNAUC h * uM (DNAUC oral, dose normalized) [1]: “+++” (>0.2 h · μM); bioavailability [1]: 10 to 30%
Cc1cc(-c2ncc(C(F)(F)F)cn2)ccc1O[C@H]1O[C@H](CO)[C@@H](O)[C@H](O)[C@@H]1O [Example 15] | “+++” (50-200) | –
OC[C@H]1O[C@H](Oc2ccc(-c3cnc(C(F)(F)F)cn3)cc2Cl)[C@@H](O)[C@@H](O)[C@@H]1O [Example 33] | “+++” (50-200) | –
Cc1cc(-c2cnc(F)c(C(F)(F)F)c2)ccc1O[C@H]1O[C@H](CO)[C@@H](O)[C@H](O)[C@@H]1O [Example 31] | “+++” (50-200) | –
OC[C@H]1O[C@H](Oc2ccc(-c3cccc(C(F)(F)F)n3)cc2C(F)(F)F)[C@@H](O)[C@@H](O)[C@@H]1O [Example 39] | “+++” (50-200) | –
Cc1cc(-c2nccnc2C(F)(F)F)ccc1O[C@H]1O[C@H](CO)[C@@H](O)[C@H](O)[C@@H]1O [Example 29] | “+++” (50-200) | –
OC[C@H]1O[C@H](Oc2c(F)cc(-c3cc(C(F)(F)F)ccn3)cc2C(F)(F)F)[C@@H](O)[C@@H](O)[C@@H]1O [Example 19] | “++++” (<50) | –
Cc1cc(-c2ccc(C(F)(F)F)nc2)ccc1O[C@H]1O[C@H](CO)[C@@H](O)[C@H](O)[C@@H]1O [Example 26] | “+++” (50-200) | –
N#Cc1cc(F)cc(-c2ccc(O[C@H]3O[C@H](CO)[C@@H](O)[C@H](O)[C@@H]3O)c(Cl)c2)c1 [Example 11] | “+++” (50-200) | –
OC[C@H]1O[C@H](Oc2c(F)cc(-c3ccc(C(F)(F)F)nc3)cc2C(F)(F)F)[C@@H](O)[C@@H](O)[C@@H]1O [Example 35] | – | PK DNAUC h * uM (DNAUC oral, dose normalized) [1]: “+” (<01 h · μM)
OC[C@H]1O[C@H](Oc2c(F)cc(-c3nccc(C(F)(F)F)n3)cc2C(F)(F)F)[C@@H](O)[C@@H](O)[C@@H]1O [Example 36] | “++++” (<50) | –
